The values that follow come from patent publication EP2402327B1, “Acetamide compounds as glucokinase activators, their process and medicinal applications” (Impetis Biosciences Ltd., priority 2010, dated 2012).

Data set [1] deals with T1, purified human recombinant GK (Homo sapiens, UniProt P35557).
T1 sequence (P35557 1-465): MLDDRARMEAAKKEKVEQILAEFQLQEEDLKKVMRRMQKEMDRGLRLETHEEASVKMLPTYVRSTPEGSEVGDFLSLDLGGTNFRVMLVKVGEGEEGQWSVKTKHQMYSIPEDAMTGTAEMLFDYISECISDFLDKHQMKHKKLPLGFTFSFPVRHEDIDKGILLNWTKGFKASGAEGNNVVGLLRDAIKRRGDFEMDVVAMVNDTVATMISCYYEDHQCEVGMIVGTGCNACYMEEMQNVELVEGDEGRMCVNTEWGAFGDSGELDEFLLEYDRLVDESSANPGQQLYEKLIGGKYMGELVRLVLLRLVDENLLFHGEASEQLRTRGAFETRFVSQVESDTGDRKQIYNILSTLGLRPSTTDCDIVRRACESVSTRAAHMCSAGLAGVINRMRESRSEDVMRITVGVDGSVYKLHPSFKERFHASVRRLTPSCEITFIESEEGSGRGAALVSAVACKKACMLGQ
Kind of data set: Glucokinase activity assay (coupled enzymatic assay with G6PD, NADH absorbance at 340 nm). The format is biochemical. As to conditions: for EC50: EC50 of % change in S0.5 (% ΔS0.5) of glucokinase for glucose, sigmoidal fit; for Emax: Emax of % change in S0.5 (% ΔS0.5), vehicle control S0.5 = 0%, 0 mM glucose = 100%. The text has this: The glucokinase (GK) assay is a coupled enzymatic assay. GK catalyzes the first step of glycolysis, the conversion of glucose to glucose-6-phosphate (G6P) in the presence of ATP. G6P in turn is converted by glucose-6-phosphate dehydrogenase (G6PD) to 6-phosphogluconate, a process that requires NAD, resulting in NADH formation. Since the GK-catalyzed step is the rate-limiting step of this coupled enzymatic process, the rate of accumulation of 6-phosphogluconate and NADH is directly proportional to the rate of glucose phosphorylation by GK. The rate of the GK-catalyzed reaction can therefore be measured by monitoring the increase in NADH absorbance at 340 nm.
The assay is carried out according to the protocol outlined in Hariharan et al (1997), Diabetes 46: 11-16. Briefly, the test compounds are incubated in a reaction mix containing 25 mM HEPES (pH 7.2), 10 mM MgCl2, 100 mM KCl, 5 mM ATP, 2 mM DTT, 0.5 mM NAD, 1 U/ml Leuconostoc mesenteroides G6PD, 0.3 U/ml of purified human recombinant GK, and different concentrations of glucose. Enzymatic activity is calculated from the initial reaction velocity, measured from the change in NADH absorbance as a function of time.
Compounds described in formula (I), in concentration ranges from 1.0 nM to 500 µM, are tested in the purified human recombinant glucokinase assay described above.
A compound is considered to be a glucokinase activator if it, in its testable range of concentrations, yields a higher rate of glucose phosphorylation than in its absence at a particular glucose concentration, for example at 5 mM glucose.
Compounds of general formula (I) are tested in the in vitro GK enzymatic assay to monitor dose-dependent effect on glucokinase activation (in kinetic mode), as described above, at various glucose concentrations. The S0.5 of glucokinase for glucose at different concentration of each compound of interest is calculated from the following modified version of the Michaelis-Menten equation, V = Vmax [S]^n/(S0.5^n + [S]^n), where [S] is the glucose concentration and n is the Hill coefficient (taken as 1.7 to account for the sigmoidal kinetics of glucokinase with respect to glucose). The S0.5 is plotted against the log of the compound concentration. The change in the S0.5 of glucokinase (ΔS0.5) for glucose is calculated by subtracting the S0.5 at each concentration of the compound from the S0.5 in the vehicle control. The ΔS0.5 is then normalized to a percent scale, where the S0.5 in the vehicle control is set to 0% and 0 mM glucose is set to 100%. The % ΔS0.5 is then plotted against the log of the compound concentration. The EC50 and Emax of % change in S0.5 is obtained from the sigmoidal fit of the data. Detailed protocol has been described in our copending application no. 409/CHE/2007 which is incorporated herein by reference. Characterization data of some representative glucokinase activators of the present disclosure, which are illustrative but not limiting, are given in table I below.
The glucokinase activation data of some representative compounds of the present disclosure, which are illustrative but not to be construed as limiting the scope or spirit of the disclosure, are given in the table I below. Table I: EC50 and Emax (with respect to % ΔS0.5) of GK activators

For data set [2] the following is noted: cited from earlier work.
Data set [3] has as its system primary rat hepatocytes. The data set is described as follows: Measurement of glycogen synthesis in primary rat hepatocytes. Particulars: 10 µM compound, 10 mM glucose, 3 hours at 37°C, fold increase over DMSO control. It is filed as cell-based, male Wistar rats. As for the experimental part:
Primary hepatocytes are collected from male Wistar rats, and tested for viability by trypan blue exclusion. Primary hepatocytes cultures with viability greater than 95% are selected for the glycogen synthesis assay. The cells are seeded in a 48-well plate at a density of 200,000 cells/well in 250 µl Minimal Essential Medium (MEM) containing 10% foetal calf serum (FCS) and 1.7 µM insulin, and incubated for 4 hours at 37°C to allow attachment. The medium is replaced with fresh MEM containing 10% FCS, 1.7 µM insulin and 10 nM dexamethasone, and the cells are incubated for 16 hours at 37°C. The medium is then replaced with fresh MEM (serum-free) containing 2 µCi/ml of D-[U^14C]-Glucose along with 10 µM of the compound in a final DMSO concentration of 0.1%. The final glucose concentration is brought to 10 mM by the addition of D-Glucose (MEM already contains 5 mM glucose). The cells are incubated for 3 hours at 37°C. The cells are washed twice with 150 mM NaCl, lysed with 0.1 N NaOH, and the lysate precipitated with 8% w/v trichloroacetic acid (TCA) and 1 mg/well unlabeled glycogen as carrier. Cell debris is pelleted by centrifugation, the supernatant is removed, and the glycogen is precipitated with 63% ethanol. After another round of centrifugation, the supernatant is removed, and the pellet containing the precipitated glycogen is dried overnight. De novo synthesized glycogen is estimated in a scintillation counter (MicroBeta Trilux, Perkin Elmer), and expressed as fold increase over DMSO control.
The protocol for the glycogen assay is based on the method described in "Biochem J. 1990 Feb 15; 266(1): 91-102" with a few minor modifications. The protocol for isolation of primary rat hepatocytes is based on the method described in "Methods in Enzymology, Vol. III. pp 34-50. Ed. by S.P. Colowick and N.O. Kaplan. New York, Academic Press, 1957" with a few minor modifications.
Compounds described in formula (I), in concentration ranges from 1.0 nM to 500 µM, are tested in glycogen synthesis assay described above. […]

In the case of `CCOc1ccc2nc(NC(=O)C(OC3CCOCC3)c3ccc(S(=O)(=O)C4CC4)cc3)sc2n1` (single isomer, unassigned; (+)) [Example D10A, (+)2-(4-Cyclopropanesulfonyl-phenyl)-N -(5-ethoxy-thiazolo[5,4-b]pyridin-2-yl)-2-(tetrahydro-pyran-4-yloxy)-a Cetamide], in data set [1], the EC50 – broadly, the concentration needed to bring the measured effect to its halfway point – came to 54 nM and the Emax (usually the maximal effect, on the per cent scale that the assay sets) worked out at 92%. The corresponding values for `O=C(O)c1ccc(Oc2cnc(NC(=O)C(OC3CCOCC3)c3ccc(S(=O)(=O)C4CC4)cc3)s2)cc1` (single isomer, unassigned; (+)) [Example D4A, (+) 4-{2-[2-(4-Cyclopropanesulfonylphenyl)-2-(tetrahydro-pyran-4-yloxy)-acetylamino]-thiazol-5-yloxy}-benzoic acid] are 69 nM and 92%. As to `O=C(Nc1ncc(Oc2ccc(CO)cc2)s1)C(OC1CCOCC1)c1ccc(S(=O)(=O)C2CC2)cc1` (stereo not shown) [Example F1, 2-(4-Cyclopropanesulfonyl-phenyl)-N-[5-(4-hydroxymethyl-phenoxy)-thiazol-2-yl]-2-(tetrahydro-pyran-4-yloxy)-acetamide], in data set [1], the EC50 was 100 nM and the Emax stood at 91%.

`O=C(Nc1ncc(F)s1)[C@H](CC1CCOCC1)c1ccc(S(=O)(=O)C2CC2)cc1` [PSN-GK1]: the hypoglycemic potential entry in data set [2] (at higher dose, Fyfe, M. C. T. (2007) Diabetologia, 50: 1277-1287) is recorded as “hypoglycemic potential is seen”. For the compound `O=C(O)c1ccc(Oc2cnc(NC(=O)C(O[C@@H]3CCOC3)c3ccc(S(=O)(=O)C4CC4)cc3)s2)cc1` (single isomer, unassigned) [Example D6A], in data set [1], the EC50 was 22 nM and the Emax is 88%. The “Fold increase in glycogen synthesis at 10 µM” value (“Fold increase” below) in data set [3] is 11 fold. As for `O=C(O)c1ccc(Oc2cnc(NC(=O)C(OC3CCOCC3)c3ccc(S(=O)(=O)C4CC4)cc3)s2)c(F)c1` (stereo not shown) [Example B34, 4-{2-[2-(4-Cyclopropanesulfonyl-phenyl)-2-(tetrahydropyran-4-yloxy)-acetylamino]-thiazol-5-yloxy}-3-fluorobenzoic acid], in data set [1], the EC50 is 45 nM and the Emax came to 91%. `COc1ccc2nc(NC(=O)C(OC3CCOCC3)c3ccc(S(=O)(=O)C4CC4)cc3)sc2n1` (single isomer, unassigned; (+)) [Example D9A, (+)2-(4-Cyclopropanesulfonyl-phenyl)-N -(5-methoxy-thiazolo[5,4-b]pyridin-2-yl)-2-(tetrahydro-pyran-4-yloxy)-Acetamide]: in data set [1], the EC50 worked out at 68 nM and the Emax was determined as 95%.

As to `O=C(O)c1ccc(Oc2cnc(NC(=O)C(Oc3ccc(F)cc3F)c3ccc(S(=O)(=O)C4CC4)cc3)s2)cc1` (single isomer, unassigned; (+)) [Example D11A, (+)4-{2-[2-(4-Cyclopropanesulfonylphenyl)-2-(2,4-difluoro-phenoxy)-acetylamino]-thiazol-5-yloxy}-benzoic acid], in data set [1], the EC50 stood at 34 nM and the Emax was 95%. Besides, in data set [3], the “Fold increase” value is 15.5 fold. As to `O=C(O)c1ccc2nc(NC(=O)C(OC3CCOCC3)c3ccc(S(=O)(=O)C4CC4)cc3)sc2c1` (stereo not shown) [Example B41, 2-[2-(4-Cyclopropanesulfonyl-phenyl)-2-(tetrahydro-pyran-4-yloxy)-acetylamino]-benzothiazole-6-carboxylic acid], in data set [1], the EC50 turned out to be 100 nM and the Emax was found to be 75%. With `O=C(Nc1nc2cccnc2s1)C(Oc1ccc(F)cc1F)c1ccc(S(=O)(=O)N2CCCCC2)cc1` (single isomer, unassigned; (-)) [Example D1A, (-)2-(2,4-Difluoro-phenoxy)-2-[4-(piperidine-1-sulfonyl)-phenyl]-N-thiazo lo[5,4-b]pyridin-2-yl-acetamide], in data set [1], the EC50 was determined as 84 nM and the Emax is 85%.

In the case of `O=C(Nc1ncc(Oc2ccc(-c3nn[nH]n3)cc2)s1)C(OC1CCOCC1)c1ccc(S(=O)(=O)C2CC2)cc1` (stereo not shown) [Example E1, 2-(4-Cyclopropanesulfonyl-phenyl)-2-(tetrahydro-pyran-4-yloxy)-N-{5-[4-(2H-tetrazol-5-yl)-phenoxy]-thiazol-2-yl}-acetamide], in data set [1], the EC50 was found to be 99 nM and the maximal effect (Emax) worked out at 88%. For `NC(=O)c1cccc(Oc2cnc(NC(=O)C(Oc3ccc(F)cc3F)c3ccc(S(=O)(=O)C4CC4)cc3)s2)c1` (stereo not shown) [Example C6, 3-{2-[2-(4-Cyclopropanesulfonyl-phenyl)-2-(2,4-difluorophenoxy)-acetylamino]-thiazol-5-yloxy}-benzamide], the “Fold increase” value in data set [3] was 13.5 fold. As to Ro-28-1675, the hypoglycemia result in data set [2] (animal efficacy models, Kamata, K. et al (2004) Structure 12: 429-438) was “cause hypoglycemia”.
